# Assay results from patent publication US6548540B2, “Method of treating cancer using dithiocarbamate derivatives” (Charlotte-Mecklenburg Hospital Authority, priority 1998, dated 2003).
# Columns and labels:
# Assay type in all cases: cell-based, human
# cyclin A = assay: Immunoblot for cyclin A in M1619 cells; details: CuSO4 1.6 μM alone; 24 hours
# Procedure: Cells were lysed and proteins were isolated and quantitated by immunoassay as previously detailed using 2 μg/ml of primary rabbit polyclonal antibodies against human bcl-2, p53, p21^WAF1/CiP1, cyclin A and cyclin B1, and peroxidase-labeled donkey polyclonal anti-rabbit IgG. Cells were placed on ice, washed twice with cold DPBS, scraped into 0.5 ml boiling buffer (10% [vol/vol] glycerol and 2% [wt/vol] sodium dodecyl sulfate [SDS] in 83 mM Tris, pH 6.8) and sheared by four passages through a pipette. Aliquots were removed for protein determination, using the BCA protein assay (Pierce). After 10% β-mercaptoethanol and 0.05% bromophenol blue were added, lysates were boiled for 5 min and stored at -80° C. until immunoblotting was performed. Proteins in defrosted samples were separated by SDS-polyacrylamide gel electrophoresis on 12% polyacrylamide gels (15 μg protein/lane) and electrotransferred to 0.45 μm Hybond ECL nitrocellulose membranes (Amersham Life Sciences) using the wet transblot method in transfer buffer (0.025 M Tris, 0.192 M glycine, 2.6 mM SDS, and 20%[vol/vol] methanol; pH 8.8) at 100 volts for 1 hour. Blots were blocked overnight at 4° C. with blocking buffer (PBS with 0.1% Tween 20) containing 5% fat-free milk powder (Carnation, Glendale, Calif.). After rinsing 5 times for 5 minutes each in PBS containing 0.1% Tween 20, blots were incubated for 1 hour at room temperature with 2.0 μg/ml of primary antibody. After rinsing again as above, blots were incubated for 1 hr at room temperature with horseradish peroxidase (HRP)-conjugated secondary antibody diluted 1:5,000 in blocking buffer. Immunoblots were rinsed again as above and detected via an enhanced chemiluminescence method (ECL Western blotting detection system, Amersham Life Science, Buckinghamshire, England). Autoradiographic film (X-OMAT AR, Eastman Kodak, Rochester, N.Y.) was exposed to immunoblots for 10, 30, or 60 seconds to obtain satisfactory images. Since disulfiram and copper disrupt transcription factor DNA binding to CRE, their effect on expression of cyclin A was studied. […]
# M1619 melanoma cells = assay: MTT proliferation assay, M1619 melanoma; details: CuSO4 supplementation of medium without disulfiram
# Procedure: Human malignant cell lines were obtained from American Type Tissue Culture Collection (Rockville, Md.). Melanoma cells lines CRL 1585 and 1619 were cultured in RPMI 1640 (GIBCO-BRL, Life Technologies, Grand Island, N.Y.) with 10% FBS and passed with nonenzymatic Cell Dissociation Solution® (Sigma). The prostate adenocarcinoma cell line CRL 1435 (PC-3) was also cultured in RPMI 1640 with 10% FBS but passed with 0.05% trypsin and 0.53 mM EDTA. The squamous lung carcinoma NCI-H520 and the adenosquamous lung carcinoma NCI-H596 cell lines were grown in RPMI 1640 supplemented with 10% FBS, 10 mM HEPES and 1.0 mM sodium pyruvate and passed with trypsin/EDTA. The small cell lung carcinoma NCI-H82 was cultured as a suspension in RPMI 1640 with 10% FBS. All of the above were grown in a 37° C. humidified environment containing 5% CO2/air. The breast carcinoma cell line MDA-MB-453 was grown in a 37° C. humidified environment with free gas exchange with atmospheric air using Leibovitz's L-15 medium with 2 mM L-glutamine and 10% FBS and was passed with trypsin/EDTA.
# The effect of disulfiram (0.15 to 5.0 μM), diethyldithiocarbamate (DDC, 1.0 μM) or PDTC (0.625 to 5.0 μM) on proliferation of malignant cell lines was studied in cultures stimulated with 10% FBS. Cell numbers were quantitated 24-72 hours later. In some experiments disulfiram or PDTC were added immediately after cells were plated. In other experiments, cells were plated and allowed to grow for 24-72 hours before fresh media with disulfiram or PDTC was added, and cell numbers were assayed 24-72 hours later.
# Finally, a number of dithiocarbamate effects on cells have been attributed to increasing the intracellular levels of copper ions. To further probe the role of copper in mediating cytotoxicity from disulfiram, cells were cultured with or without addition of the impermeate Cu^2+ chelator bathocuprioinedisulfonic acid (BCPS, 100 μM) added to medium to sequester Cu^2+ in the extracellular compartment. Cells were also treated 12 hours with various concentration of disulfiram (0.625 to 5.0 μM) and intracellular copper levels were measured as outlined below.
# Proliferation of cultured cells was quantitated using a previously reported calorimetric method based upon metabolic reduction of the soluble yellow tetrazolium dye 3-[4,5-dimethylthiazol]-2yl-2,5-diphenyl tetrazolium bromide (MTT) to its insoluble purple formazan by the action of mitochondrial succinyl dehydrogenase (See, e.g., S. J. Hirst, et al., “Quantifying proliferation of cultured human and rabbit airway smooth muscle in response to serum and platelet derived growth factor,” Am. J. Respir. Cell Mol. Biol. 7:574-581 (1992); R. Dashtaki, et al. R., supra; S. S. Brar, et al., “Requirement for reactive oxygen species in serum-induced and platelet-derived growth factor-induced growth of airway smooth muscle,” J. Biol. Chem. 274:20017-20026 (1999)). This assay empirically distinguishes between dead and living cells. For proliferation studies, cells were seeded into 24-well uncoated plastic plates (Costar) at 50,000 cells per well and cultured with respective media and mitogens.
# M1619 cells = assay: Intracellular reactive oxygen species, dichlorofluorescin probe; details: CuSO4 0.2-1.6 μM
# Procedure: Potential redox effects of disulfiram were studied in three sets of experiments. The importance of cellular glutathione (GSH) in mediating or modulating thiocarbamate toxicity was studied by measuring levels of intracellular GSH after treatment with disulfiram. […] Also, to assess whether a nonspecific antioxidant effect of disulfiram or PDTC might account for cellular growth inhibition, we studied the effect of the potent lipophilic antioxidant probucol (1.0 to 1,000 μM) on proliferation of malignant cell lines. […] A. Royall, et al., “Evaluation of 2′,7′-dichlorofluorescin and dihydrorhodamine 123 as fluorescent probes for intracellular H2O2 in cultured endothelial cells,” Archiv. Biochem. Biophys. 302:348-355 (1993)). […] Cells were plated in 24 well plastic plates at 50,000 cells per well and grown to confluence. Media was aspirated from wells and replaced with 100 μl medium containing 10 μM DCF-DA, and plates were incubated at 37° C. for 30 minutes. The DCF-DA containing media was aspirated, cells were washed twice with media alone and 100 μl fresh media was added to wells. […] The relative concentration of dichlorofluroescein was measured immediately by monitoring fluorescence at 37° C. using an excitation wavelength of 485 nm and emission wavelength of 535 nm.
smiles,measurement,setting,value
"O=S(=O)([O-])[O-].[Cu+2] [CuSO4, cupric sulfate]",cyclin A expression,cyclin A,little effect
same,"cell growth, copper alone",M1619 melanoma cells,do not by themselves affect cell growth
same,generation of reactive oxygen species (dichlorofluorescein fluorescence vs baseline),M1619 cells,not increased
